Consider four compounds from patent US20240050434A1, “HORMAD1 THERAPEUTICS” (Royal Cancer Hospital, priority 2020, published 2024).

For data set [1] the following is noted: Mortlock et al., 2007; cited from earlier work.
For data set [2], the target named is T1, AURORA A kinase (Homo sapiens, UniProt O14965).
T1 sequence (O14965 1-403): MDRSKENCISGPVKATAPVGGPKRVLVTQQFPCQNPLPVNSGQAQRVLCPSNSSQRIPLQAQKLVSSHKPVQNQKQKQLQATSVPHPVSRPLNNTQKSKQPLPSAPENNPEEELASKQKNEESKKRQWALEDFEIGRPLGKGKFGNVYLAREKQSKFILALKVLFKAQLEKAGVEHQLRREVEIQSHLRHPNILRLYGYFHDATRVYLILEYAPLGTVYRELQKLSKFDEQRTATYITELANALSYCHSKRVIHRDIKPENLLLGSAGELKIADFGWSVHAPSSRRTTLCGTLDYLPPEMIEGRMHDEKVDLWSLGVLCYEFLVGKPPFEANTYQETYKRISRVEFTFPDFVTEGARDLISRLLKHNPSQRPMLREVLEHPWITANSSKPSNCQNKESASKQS
The following applies: Shimomura et al., 2010; cited from earlier work.

Data set [3] concerns RPE1 cells expressing a doxycycline-inducible HORMAD1 construct. Put plainly: Clonogenic survival assay (SRB) in RPE1 cells with doxycycline-inducible HORMAD1. It counts as cell-based. The following applies: increasing doses, 7-14 days, normalised to vehicle. As to the method:
Cell confluence was analysed every 6 hours for 10 days, using incucyte software. Data are from 3 biological replicates and analysed using a two-way ANOVA. […] RPE1 cells expressing a doxycycline-inducible HORMAD1 expression construct were exposed to doxycycline or vehicle (H2O) and were exposed to 20 nM of the Aurora B inhibitor, AZD1152-HQPA. Cell confluence was analysed every 6 hours for 10 days, using incucyte software. Data are from 3 biological replicates and analysed using a two-way ANOVA. […] 7-10 days post drugging, cells were fixed, stained with SRB, and colonies were counted using Cell Profiler. […] 10 days post drugging, cells were fixed, stained with SRB, and colonies were counted using Cell Profiler. […] RPE1 cells expressing a doxycycline-inducible HORMAD1 expression construct were exposed to doxycycline or vehicle (H2O) and to increasing doses of the Aurora B inhibitor, AZD1152-HQPA. 7-10 days post drugging, cells were fixed, stained with SRB, and colonies were counted using Cell Profiler. […] SUM159 cells expressing a doxycycline-inducible HORMAD1 expression construct were exposed to doxycycline or vehicle (H2O) and to increasing doses of the Aurora B inhibitor, AZD1152-HQPA. 10 days post drugging, cells were fixed, stained with SRB, and colonies were counted using Cell Profiler.
RPE1 cells were reverse transfected with BUB1 or control siRNA particles for 3 days. Cell lysates were collected, and analysed by western blotting using anti-BUB1 and anti-β-ACTIN antibodies. […] RPE1 cells expressing a doxycycline-inducible HORMAD1 expression construct were exposed to doxycycline or vehicle, and were reverse transfected with BUB1 or control siRNA particles. 5 days post transfection, cellular viability was estimated using cell titer glo reagent and surviving fractions were calculated relative to DMSO treated cells. […] Statistical significance estimated using a one-way ANOVA with Sidak's correction. C. Western blot illustrating expression of HORMAD1 in wild-type RPE1 cells and RPE1 cells depleted of BUB1 using CRISPR. WT and BUB1 depleted RPE1 cells expressing a doxycycline-inducible HORMAD1 expression construct, were exposed to doxycycline or vehicle for 3 days. Cell lysates were collected, and analysed by SDS-PAGE and western blotting using anti-HORMAD1, anti-H3 and anti-BUB1 antibodies. […] WT and BUB1 depleted RPE1 cells expressing a doxycycline-inducible HORMAD1 expression construct were exposed to doxycycline or vehicle. 7-10 days post doxycycline induction, cells were fixed, stained with SRB, and cellular viability was estimated using SRB absorbance readings. […] Statistical significance estimated using a one-way ANOVA with Sidak's correction. […] RPE1 expressing a doxycycline-inducible HORMAD1 expression construct, were exposed to doxycycline or vehicle. […] Cells were fixed, stained with SRB, and cellular viability was estimated using SRB absorbance readings. […] Cells were imaged every 4 hours, and confluence was continually measured using incucyte software. Growth curves were plotted, based on confluence. Data represent 3 biological replicas. […] Patient-derived organoids models were grown in culture and cell lysates collected and analysed using SDS-PAGE and western blotting using anti-HORMAD1 and anti-β-ACTIN antibodies. […] Cellular viability was estimated using cell titer glo reagent and surviving fractions were calculated relative to DMSO treated cells. […] Left, dose response curves for each organoid.

For data set [4] the test system is unchanged. Description: Cell viability by cell titre glo in RPE1 cells with doxycycline-inducible HORMAD1. The following applies: increasing doses, 5 days post drug, cell titre glo, normalised to vehicle. It counts as cell-based. As to the method:
RPE1 cells expressing a doxycycline-inducible HORMAD1 construct were treated with doxycycline or vehicle. […] Six days post HORMAD1 induction and 5 days post drug, cell viability was estimated using cell titre glo reagent. Surviving fractions were calculated (normalised to vehicle treated cells).
RPE1 and SUM159 cells expressing a doxycycline-inducible HORMAD1 construct were treated with doxycycline or vehicle. […] Surviving fractions were calculated (normalised to vehicle treated cells). (FIGS. 7a, b and 14c and d). Data from 3 replicas was analysed using 2-way ANOVA. 5 days post drugging, cell viability was estimated using cell titre glo reagent. Surviving fractions were calculated (normalised to vehicle treated cells). Data from 4 replicas was analysed using 2-way ANOVA.
RPE1 cells expressing a doxycycline-inducible HORMAD1 construct were treated with doxycycline or vehicle. […] 5 days post drugging, cell viability was estimated using cell titre glo reagent. Surviving fractions were calculated (normalised to vehicle treated cells).
RPE1 cells expressing a doxycycline-inducible HORMAD1 construct were treated with doxycycline or vehicle in order to induce HORMAD1 expression. […] Using cell titre glo as a measure of cell viability, surviving fractions were calculated (normalised to eribulin alone).
RPE1 cells expressing a doxycycline-inducible HORMAD1 construct were treated with doxycycline or vehicle. […] Using cell titre glo as a measure of cell viability, surviving fractions were calculated (normalised to olaparib alone).

In data set [5] the test system is RPE1 cells expressing a doxycycline-inducible HORMAD1 expression construct. Put plainly: Mitotic slippage by time-lapse microscopy in nocodazole-arrested RPE1 cells. It counts as cell-based. As to the method: A. Diagram of experimental outline. Cells were exposed to doxycycline for 3 days, arrested in mitosis using 300 nM nocodazole or 100 nM Paclitaxel. Mitotic cells were filmed every 4 minutes for 1200 minutes, and the time cells remained arrested in mitosis before exiting via mitotic slippage was assessed. […] RPE1 cells expressing a doxycycline-inducible HORMAD1 cDNA expression construct were exposed to doxycycline or vehicle (H2O) for three days at which point cells were exposed to 300 nM nocodazole and filmed every 4 minutes using time-lapse microscopy. The time individual cells remained arrested in mitosis was quantified and presented as the % of cells arrested in mitosis at each time point. Data reflects a total of 125 cells from 3 biological repeats and was analysed using Mantel-Cox test. C. […] The time individual cells remained arrested in mitosis was quantified and presented as the % of cells arrested in mitosis at each time point. Data reflects a total of 125 cells from 3 biological repeats and was analysed using Mantel-Cox test. […] H1299 cells expressing two individual, doxycycline-inducible, shRNA particles targeting HORMAD1 as well as a non-targeting control were grown for three days in the presence of doxycycline at which point cell lysates were generated and analysed by SDS-PAGE and western blotting using anti-HORMAD1 and anti-β-ACTIN antibodies. […] The time individual cells remained arrested in mitosis was quantified and presented as the % of cells arrested in mitosis at each time point. Data reflects a total of 90 cells from 3 biological repeats and was analysed using Mantel-Cox test with Bonferonni correction. […] Mitotic cells were filmed every 2 minutes for 400 minutes, and the time taken before cells exited mitosis via mitotic slippage was assessed. […] The time individual cells remained arrested in mitosis was quantified and presented as the % of cells arrested in mitosis at each time point. […] The time individual cells remained arrested in mitosis was quantified and presented as the % of cells arrested in mitosis at each time point. […]

Data set [6] concerns H1299 cells expressing shRNA targeting HORMAD1. The following applies: 300 nM nocodazole 6 hours, then 200 nM reversine. How it is done: A. Diagram of experimental outline. Cells were exposed to doxycycline for 3 days, arrested in mitosis using 300 nM nocodazole or 100 nM Paclitaxel. Mitotic cells were filmed every 4 minutes for 1200 minutes, and the time cells remained arrested in mitosis before exiting via mitotic slippage was assessed. […] RPE1 cells expressing a doxycycline-inducible HORMAD1 cDNA expression construct were exposed to doxycycline or vehicle (H2O) for three days at which point cells were exposed to 300 nM nocodazole and filmed every 4 minutes using time-lapse microscopy. The time individual cells remained arrested in mitosis was quantified and presented as the % of cells arrested in mitosis at each time point. Data reflects a total of 125 cells from 3 biological repeats and was analysed using Mantel-Cox test. C. […] The time individual cells remained arrested in mitosis was quantified and presented as the % of cells arrested in mitosis at each time point. Data reflects a total of 125 cells from 3 biological repeats and was analysed using Mantel-Cox test. […] H1299 cells expressing two individual, doxycycline-inducible, shRNA particles targeting HORMAD1 as well as a non-targeting control were grown for three days in the presence of doxycycline at which point cell lysates were generated and analysed by SDS-PAGE and western blotting using anti-HORMAD1 and anti-β-ACTIN antibodies. […]

The subject of data set [7] is HeLa cells transfected with siRNA targeting HORMAD1. The following applies: 300 nM nocodazole 6 hours, then 100 nM reversine. As to the method: (§1) HeLa cells were transfected with two individual siRNA particles targeting HORMAD1 as well as a non-targeting control, grown for three days at which point cell lysates were generated and analysed SDS-PAGE and western blotting using anti-HORMAD1 and anti-H3 antibodies. […] HeLa cells were transfected with two individual siRNA particles targeting HORMAD1 as well as a non-targeting control, grown for three days at which point cells were exposed to 300 nM nocodazole and filmed every 4 minutes using time-lapse microscopy. The time individual cells remained arrested in mitosis was quantified and presented as the % of cells arrested in mitosis at each time point. Data reflects a total of 125 cells from 3 biological repeats and was analysed using Mantel-Cox test with Bonferonni correction. C. […] MDA-MB-436 cells expressing two individual, doxycycline-inducible, shRNA particles targeting HORMAD1 as well as a non-targeting control were grown for three days in the presence of doxycycline at which point cell lysates were generated and analysed SDS-PAGE and western blotting using anti-HORMAD1 and anti-6-ACTIN antibodies. […] MDA-MB-436 cells expressing two individual, doxycycline-inducible, shRNA particles targeting HORMAD1 as well as a non-targeting control were grown for three days in the presence of doxycycline at which point cells were exposed to 300 nM nocodazole and filmed every 4 minutes using time-lapse microscopy. The time individual cells remained arrested in mitosis was quantified and presented as the % of cells arrested in mitosis at each time point. Data reflects a total of 50 cells from 2 biological repeats and was analysed using Mantel-Cox test with Bonferonni correction. […] The time individual cells remained arrested in mitosis was quantified and presented as the % of cells arrested in mitosis at each time point. […] The time individual cells remained arrested in mitosis was quantified and presented as the % of cells arrested in mitosis at each time point.

The test system of data set [8] is MCF10A cells expressing a doxycycline-inducible HORMAD1 cDNA expression construct. The following applies: 300 nM nocodazole 6 hours, then 100 nM reversine. How it is done: as §1
Data set [9] has as its system SUM159 cells induced to express HORMAD1. The following applies: 300 nM nocodazole 6 hours, then 100 nM reversine. As to the method: as §1
The subject of data set [10] is MDA-MB-436 cells expressing shRNA targeting HORMAD1. The following applies: 300 nM nocodazole 6 hours, then 200 nM reversine. How it is done: as §1

Entries after “also recorded” stand apart in the source; their conditions may differ.

For `CCN(CCCOc1ccc2c(Nc3cc(CC(=O)Nc4cccc(F)c4)n[nH]3)ncnc2c1)CCOP(=O)(O)O` [AZD1152], in data set [1], the “conversion of prodrug in plasma” value is “rapidly converted into AZD1152-HQPA”.
On to `O=C(O)[C@]1(Cc2cccc(Nc3nccs3)n2)CC[C@@H](Oc2cccc(Cl)c2F)CC1` [MK-5108], for which, in data set [2], the “concentrations inhibiting AURORA A kinase activity” value is given as “sub-nanomolar”; the “specificity over AURORA B and C” value is on record as roughly 200 fold. In [3], the “clonogenic survival / sensitivity of HORMAD1 expressing versus HORMAD1-negative RPE1 cells” value is “confirmed these findings; also recorded: increased Aurora inhibitor sensitivity”. In [4], the “growth inhibition (surviving fraction) of HORMAD1 expressing versus HORMAD1-negative RPE1 cells” value was “more effectively inhibited”.
Consider `c1nc2nc(Nc3ccc(N4CCOCC4)cc3)nc(NC3CCCCC3)c2[nH]1` [reversine, 2-(4-morpholinoanilino)-6-cyclohexylaminopurine], for which the “time before slippage in RPE1 cells expressing only the HORMA domain” value in data set [5] (300 nM nocodazole 6 hours, then 100 nM reversine) is “reduced”. Besides, in [5] (300 nM nocodazole arrest, then 100-200 nM reversine, 50 nM BOS172722 or AZD1152-HQPA), the “mitotic slippage / mitotic exit in HORMAD1 induced RPE1 cells” value was “rapid mitotic exit; also recorded: premature mitotic slippage”. Also, the “mitotic slippage in H1299 cells depleted of HORMAD1” value in data set [6] is “delayed mitotic slippage”. The “mitotic slippage in HeLa cells depleted of HORMAD1” value in data set [7] was “delayed mitotic slippage”. Also, the “mitotic slippage in MCF10A cells induced to express HORMAD1” value in data set [8] is “premature mitotic slippage”. For the same compound, the “mitotic slippage in SUM159 cells induced to express HORMAD1” value in data set [9] is “premature mitotic slippage”. In addition, the “mitotic slippage in MDA-MB-436 cells depleted of HORMAD1” value in data set [10] is listed as “delayed mitotic slippage”.
For the compound AZ-3146, in data set [3], the “clonogenic survival / sensitivity of HORMAD1 expressing versus HORMAD1-negative RPE1 cells” value is “confirmed these findings; also recorded: increased MPSI inhibitor sensitivity”.
